Target: T1, ATF6 (Homo sapiens, UniProt P18850)
T1 construct: endogenous in cells; host or cells: U2-OS (ATCC HTB-96) stably transduced with the Cignal Lenti ATF6 luc reporter (Qiagen #CLS-6031L)
T1 sequence (P18850 1-670): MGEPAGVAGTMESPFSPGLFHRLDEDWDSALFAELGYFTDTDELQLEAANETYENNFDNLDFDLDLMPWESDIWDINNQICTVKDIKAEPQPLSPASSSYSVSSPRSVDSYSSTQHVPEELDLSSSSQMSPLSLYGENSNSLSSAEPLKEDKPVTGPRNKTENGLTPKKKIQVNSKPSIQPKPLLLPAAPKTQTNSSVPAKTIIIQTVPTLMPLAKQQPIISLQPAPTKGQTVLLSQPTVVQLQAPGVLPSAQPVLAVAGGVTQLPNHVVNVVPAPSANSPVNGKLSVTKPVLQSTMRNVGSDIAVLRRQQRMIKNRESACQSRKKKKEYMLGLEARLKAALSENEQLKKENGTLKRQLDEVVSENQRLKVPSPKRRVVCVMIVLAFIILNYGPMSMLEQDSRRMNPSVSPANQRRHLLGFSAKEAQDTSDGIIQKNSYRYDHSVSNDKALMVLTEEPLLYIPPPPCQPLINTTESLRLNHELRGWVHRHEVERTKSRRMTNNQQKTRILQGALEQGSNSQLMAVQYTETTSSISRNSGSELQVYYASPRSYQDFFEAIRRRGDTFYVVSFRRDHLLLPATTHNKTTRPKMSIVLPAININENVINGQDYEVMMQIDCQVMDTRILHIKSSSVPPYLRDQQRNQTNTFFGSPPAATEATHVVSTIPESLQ
Experiment: ERSE ATF6-luciferase assay in presence of Tg-induced ER stress (U2-OS ATF6 TRE-luciferase reporter cells)
Format: cell-based
Conditions: in presence of ER stress (thapsigargin), Tg only = 100%; for ATF6 activity @ 1 μM [%] / activity at 1 µM: 1 μM test compound; for ATF6 activity @ 1 μM [%] / ATF6 activity @ 10 μM [%]: 8 hr; for activity at 10 µM / activity at 1 µM: U2OS, 8 h; for activity at 10 µM / ATF6 activity @ 10 μM [%]: 10 μM test compound
Procedure: To understand how exemplary compounds of the invention modulate the activity of ATF6 in absence or presence of endoplasmic reticulum (ER) stress, a Human bone osteosarcoma (U2-OS)-based TRE-luciferase reporter stable cell line was generated to determine the modulation of transcription of ATF6 target genes.
U2-OS cells were obtained from the American Type Culture Collection (ATCC HTB-96, ATCC Manassas, VA) and were cultured with growing medium containing Dulbecco's Modified Eagle's Medium (DMEM) (Cat. No.: SH30023.02, HyClone) supplemented with fetal bovine serum (FBS) 10% (Cat. No.: 16000044, Gibco) and 1% penicillin-streptomycin antibiotic cocktail (Cat. No.: SV30010, Hyclone).
Cignal Lenti ATF6 luc reporter (Qiagen #CLS-6031L) was used to produce a stable cell line in U2-OS cells (U2-OS ATF6 TRE-luciferase reporter). The lenti ATF6 reporter is a preparation of replication incompetent, VSV-g pseudotyped lentivirus particles expressing the firefly luciferase gene under the control of a minimal (m)CMV promoter and tandem repeats of the ATF6 transcriptional response element (TRE). The number of response elements as well as the intervening sequence between response elements has been experimentally optimized to maximize the signal to noise ratio.
Exemplary compounds of the invention and reference compounds were prepared from powder as 10 mM stock solutions in dimethyl sulfoxide (DMSO; Cat. No. #D2650, Sigma Aldrich) and stored at −80° C. in presence of N2 neutral atmosphere.
For the primary screening, 40,000 U2-OS ATF6 TRE-luciferase reporter cells were plated in poly-D-lysine (Cat. No.: P2636, Sigma) pre-coated white 96-well plates (Thermo Scientific Nunc #136101) with 100 μL of growing medium. Cells were incubated in humidified chambers for 24 hr.
For testing exemplary compounds in presence of ER-stress, cells were pre-treated for 30 min with 50 μL growing medium containing either vehicle (DMSO), 1 or 10 μM test compound. After this pre-incubation, 50 μL of a solution containing 0.2 μM of the ER stress-inducer thapsigargin (Tg) was added to the appropriate wells. The Tg solution also contains vehicle or test compounds at 1 or 10 μM as indicated. The final concentration of DMSO in each well was kept at 0.3%. Plates were incubated for 8 hr in humidified chambers.
After the 8 hr incubation, plates were cooled down to room temperature for 10 min prior to the luciferase assays. Luciferase reactions were performed using Luciferase Assay System (Cat. No.: E4550, Promega). Briefly, each well was washed with 100 μl of PBS 1× and, then, 20 μl of lysis reagent was added into each well. Plates were shaken for 10 min and, then, 50 μl of Luciferase Assay Reagent was added to each well. Luminescence was determined by integration of 1 s with a gain of 110 in a Synergy 4 Microplate reader. All measurements were carried out in triplicate.
The average activity determined from the wells containing vehicle only (DMSO, 0% of ATF6 activity) was used as blank and subtracted from the rest of measurements. The average activity determined from the wells containing Tg only was used as 100% of ATF6 activity. The percentage of modulation of exemplary compounds was calculated by normalizing values to potential maximal activation with Tg.
ATF6 activities of exemplary compounds at 1 and 10 μM in presence Tg-induced ER stress tested in the U2-OS ATF6 TRE-luciferase reporter cells were determined and are shown in Table 2-2 and Table 3-2.

SMILES | ATF6 activity @ 1 μM [%] (Table 2-2) | activity at 10 µM (Table 2-2) | ATF6 activity @ 10 μM [%] (Table 2-2) | ATF6 activity @ 1 μM [%] (Table 2-3) | ATF6 activity @ 10 μM [%] (Table 2-3) | activity at 1 µM (Table 2-2)
CC(c1ccc(C(F)(F)F)cc1C(F)(F)F)n1cc(C#Cc2nnc(-c3cnccn3)s2)cn1 (single isomer, unassigned) [Compound 2-21, 2-((1-(1-(2,4-bis(trifluoromethyl)phenyl)ethyl)-1H-pyrazol-4-yl)ethynyl)-5-(pyrazin-2-yl)-1,3,4-thiadiazole] | − (− refers to 75% < % activity < 100% at 1 or 10 μM) | 75 to 100% | – | – | – | –
CC(c1ccc(C(F)(F)F)cc1C(F)(F)F)n1cc(C#Cc2nnc(-c3cnccn3)s2)cn1 (single isomer, unassigned) [Compound 2-22, 2-((1-(1-(2,4-bis(trifluoromethyl)phenyl)ethyl)-1H-pyrazol-4-yl)ethynyl)-5-(pyrazin-2-yl)-1,3,4-thiadiazole] | −− (−− refers to 50% < % activity < 75% at 1 or 10 μM test compound) | – | − (− refers to 75% < % activity < 100% at 1 or 10 μM) | – | – | –
Cc1nn(C(C)c2ccc(C(F)(F)F)cc2C(F)(F)F)cc1C#Cc1nnc(-c2ccccn2)s1 (single isomer, unassigned) [Compound 2-23, 2-((1-(1-(2,4-bis(trifluoromethyl)phenyl)ethyl)-3-methyl-1H-pyrazol-4-yl)ethynyl)-5-(pyridin-2-yl)-1,3,4-thiadiazole] | − (− refers to 75% < % activity < 100% at 1 or 10 μM) | 50 to 75% | – | – | – | –
Cc1nn(C(C)c2ccc(C(F)(F)F)cc2C(F)(F)F)cc1C#Cc1nnc(-c2ccccn2)s1 (single isomer, unassigned) [Compound 2-24, 2-((1-(1-(2,4-bis(trifluoromethyl)phenyl)ethyl)-3-methyl-1H-pyrazol-4-yl)ethynyl)-5-(pyridin-2-yl)-1,3,4-thiadiazole] | −−− (−−− refers to <50% at 1 or 10 μM test compound) | – | −−− (−−− refers to <50% at 1 or 10 μM test compound) | – | – | –
O=C(Nc1cnn(Cc2ccc(C(F)(F)F)cc2C(F)(F)F)c1)c1cc(-c2ccco2)on1 [Ceapin-A7, reference compound] | −−− (−−− refers to <50% at 1 or 10 μM test compound) | – | −−− (−−− refers to <50% at 1 or 10 μM test compound) | −−− (−−− refers to <50% at 1 or 10 μM test compound) | −−− (−−− refers to <50% at 1 or 10 μM test compound) | –
CC(c1ccc(C(F)(F)F)cc1C(F)(F)F)n1cc(C#Cc2nnc(-c3ccccn3)s2)cn1 (centres unmarked) [Compound 2-1, 2-((1-(1-(2,4-bis(trifluoromethyl)phenyl)ethyl)-1H-pyrazol-4-yl)ethynyl)-5-(pyridin-2-yl)-1,3,4-thiadiazole] | −− (−− refers to 50% < % activity < 75% at 1 or 10 μM test compound) | – | −−− (−−− refers to <50% at 1 or 10 μM test compound) | – | – | –
CC(c1ccc(C(F)(F)F)cc1C(F)(F)F)n1cc(C#Cc2nnc(-c3ccccn3)s2)cn1 (centres unmarked) [Compound 2-2, 2-((1-(1-(2,4-bis(trifluoromethyl)phenyl)ethyl)-1H-pyrazol-4-yl)ethynyl)-5-(pyridin-2-yl)-1,3,4-thiadiazole] | – | < 50% | – | – | – | < 50%
FC(F)(F)c1ccc(Cn2cc(C#Cc3nnc(-c4ccccn4)s3)cn2)c(C(F)(F)F)c1 [Compound 2-4, 2-((1-(2,4-bis(trifluoromethyl)benzyl)-1H-pyrazol-4-yl)ethynyl)-5-(pyridin-2-yl)-1,3,4-thiadiazole] | – | 75 to 100% | – | – | – | 50 to 75%
CC(c1ccc(C(F)(F)F)cc1C(F)(F)F)n1cc(/C=C/c2nnc(-c3ccccn3)s2)cn1 (centres unmarked) [Compound 2-5, (E)-2-(2-(1-(1-(2,4-bis(trifluoromethyl)phenyl)ethyl)-1H-pyrazol-4-yl)vinyl)-5-(pyridin-2-yl)-1,3,4-thiadiazole] | – | < 50% | – | – | – | 100 to 125%
CC(c1ccc(C(F)(F)F)cc1C(F)(F)F)n1cc(/C=C\c2nnc(-c3ccccn3)s2)cn1 (centres unmarked) [Compound 2-6, (Z)-2-(2-(1-(1-(2,4-bis(trifluoromethyl)phenyl)ethyl)-1H-pyrazol-4-yl)vinyl)-5-(pyridin-2-yl)-1,3,4-thiadiazole] | – | – | −− (−− refers to 50% < % activity < 75% at 1 or 10 μM test compound) | – | – | 100 to 125%
CC(c1ccc(C(F)(F)F)cc1C(F)(F)F)n1cc(/C=C\c2nnc(-c3ccccn3)s2)cn1 (centres unmarked) [Compound 2-7, (Z)-2-(2-(1-(1-(2,4-bis(trifluoromethyl)phenyl)ethyl)-1H-pyrazol-4-yl)vinyl)-5-(pyridin-2-yl)-1,3,4-thiadiazole] | + (+ refers to 100% < % activity < 125% at 1 or 10 μM) | – | − (− refers to 75% < % activity < 100% at 1 or 10 μM) | – | – | –
CC(c1ccc(C(F)(F)F)cc1C(F)(F)F)n1cc(/C=C\c2nnc(-c3ccccn3)s2)cn1 (centres unmarked) [Compound 2-8, (Z)-2-(2-(1-(1-(2,4-bis(trifluoromethyl)phenyl)ethyl)-1H-pyrazol-4-yl)vinyl)-5-(pyridin-2-yl)-1,3,4-thiadiazole] | + (+ refers to 100% < % activity < 125% at 1 or 10 μM) | – | −− (−− refers to 50% < % activity < 75% at 1 or 10 μM test compound) | – | – | –
CC(c1ccc(C(F)(F)F)cc1C(F)(F)F)n1cc(CCc2nnc(-c3ccccn3)s2)cn1 (centres unmarked) [Compound 2-9, 2-(2-(1-(1-(2,4-bis(trifluoromethyl)phenyl)ethyl)-1H-pyrazol-4-yl)ethyl)-5-(pyridin-2-yl)-1,3,4-thiadiazole] | – | < 50% | – | – | – | 75 to 100%
CC(c1ccc(C(F)(F)F)cc1C(F)(F)F)n1cc(C#Cc2nnc(-c3cnccn3)s2)cn1 (centres unmarked) [Compound 2-10, 2-((1-(1-(2,4-bis(trifluoromethyl)phenyl)ethyl)-1H-pyrazol-4-yl)ethynyl)-5-(pyrazin-2-yl)-1,3,4-thiadiazole] | – | 75 to 100% | – | – | – | 50 to 75%
Cc1nn(C(C)c2ccc(C(F)(F)F)cc2C(F)(F)F)cc1C#Cc1nnc(-c2ccccn2)s1 (centres unmarked) [Compound 2-11, 2-((1-(1-(2,4-bis(trifluoromethyl)phenyl)ethyl)-3-methyl-1H-pyrazol-4-yl)ethynyl)-5-(pyridin-2-yl)-1,3,4-thiadiazole] | – | 50 to 75% | – | – | – | 50 to 75%

From US12662478B2, “ATF6 modulators and uses thereof” (Altos Labs, Inc., priority 2019, dated 2026)
